{"source": "patent US11823799B2", "about": "“Method for identifying personalized therapeutic strategies for patients affected with a cancer” (UNIVERSITE DE STRASBOURG, priority 2015, dated 2023)", "key": {"[1]": {"tested_on": "glioblastoma patient HB21 tumor", "assay": "Glioblastoma patient HB21 biopsy cells grafted orthotopically in mouse brain, tumor volume", "format": "in vivo, Immunocompromised mice", "conditions": "for tumor growth inhibition compared to standard of care (Temozolomide): SB-3CT 25 mg/kg p.o, Cediranib 6 mg/kg p.o, 21 days after first treatment", "description": "Immunocompromised mice were anesthetized with isoflurane 3% (BAXTER), under 0.5 L 02, and received a subcutaneous injection of ketofen 1% 1.5 mL/Kg (MERIAL). The scalp was incised and 100 000 cells of the dissociated glioblastoma biopsy were engrafted with a 2 μL Hamilton syringe (HARVARD […]; HAM-88400) mounted on a stereotaxic set up (HARVARD […]) at the following coordinates from the bregma x: −2 mm; y: +1 mm; z: −3.5 mm at a speed of 0.66 μl/min, 5 minutes after the syringe introduction. After injection, the syringe was kept in place for 5 minutes, and then raised for 1 mm per minute. The scalp was sutured with 7.5 mm Michel stainless steel wound clips (A75, PERFECT). Animals were allowed to recover under a heat lamp several minutes before they were returned to their cage.\nAfter 52 days of tumor development, mice were randomized in 4 groups of treatment. First group was treated with Temozolomide 40 mg/kg (n=9) i.v during 5 consecutive days, second one was treated with SB-3CT 25 mg/kg (n=9) p.o during 10 days interrupted by 2 days of wash-out after 5 days, a third group was treated with Cediranib 6 mg/kg (n=10) p.o during 10 days interrupted by 2 days of wash-out after 5 days, a last one group was treated with Erlotinib 50 mg/kg (n=9) p.o 1 time per week during 3 weeks. The administration volume was 100 μL. On the day of termination (21 days after the first treatment), all mice are sacrificed by cervical dislocation, brains are removed (38 total samples), and included in cryo-embedding media OCT© and stored at −80° C.\nBrains were cut in 20 μm sections with a cryostat (LEICA CM 3050S), mounted on blade (Superfrost Super Plus), and stored at −20° C. In order to visualize the tumor, brain sections were thawed in distilled water and Stained with 2% diluted Giemsa's staining (SUBRA; RAL diagnostic 320310-1000) in distilled water at 37° C. for 2 hours. […] Tumor volume was calculated by the addition of every partial volume: [Vtotal=Σpartial volumes=Σd1× (S1+S2)/2+d2×(S2+S3)/2+ . . . +dn× (Sn+Sn+1)]. […]"}, "recurrent glioblastoma": {"tested_on": "recurrent glioblastoma", "conditions": "cited from earlier work"}, "PC model (HID-28) [2]": {"tested_on": "PC model (HID-28)", "assay": "Prostate tumor PDX model HID-28, subcutaneous tumor growth in mice", "format": "in vivo, nude mice", "conditions": "Cediranib 6 mg/kg p.o; for effect on tumor growth / tumor development: Docetaxel 20 mg/kg i.p, Erlotinib 50 mg/kg p.o, vs vehicle", "text": "Small tumor fragments are subcutaneously implanted in the flank of athymic nude mice. When tumor size reached 1000 to 2000 mm^3, tumors are surgically excised and small tumor fragments (approximately 40 mm^3) are implanted in the subcutaneous tissue of the interscapular region of 82 nude mice. 36 mice with established growing tumors and tumor volume ranging 60 to 200 mm^3 are included in the study and randomized according to their individual tumor volume into 4 groups of 9 mice. Tumor signature is verified during the amplification and also after engraftment.\nThe first group is treated with Erlotinib 50 mg/kg (n=9) p.o 1 time per week during 3 weeks, the second is treated with Cediranib 6 mg/kg (n=9) p.o during 3 cycles of 5 days interrupted by 2 days of wash-out, the third group with a mix of the vehicle of Erlotinib and Cediranib (sodium carboxymethylcellulose 0.5%, captisol 15%, DMSO 1% and methylcellulose 0.5%), and the last group is treated with Docetaxel 20 mg/kg (n=9) i.p during 2 cycles of 1 injection every 3 weeks.\nTumor volume is evaluated biweekly by measuring tumor diameters, with a caliper. The formula TV (mm^3)=[length (mm)×width (mm)^2]/2 will be used, where the length and the width are the longest and the shortest diameters of the tumor, respectively.\nOn the day of termination (28 days after the first treatment), mice are sacrificed by cervical dislocation, tumor are collected from all mice (36 tumor samples totally) and serum from 5 mice per group is collected (20 serum samples totally)."}, "CC model (CR-IC-028M)": {"tested_on": "CC model (CR-IC-028M)", "assay": "Colorectal tumor PDX model CR-IC-028M, subcutaneous tumor growth in mice", "format": "in vivo, SWISS Nude mice", "conditions": "Cediranib 6 mg/kg p.o", "text": "Small tumor fragments were subcutaneously implanted in the right flank of 9 CB17 SCID mice. When tumor size reached 500-700 mm^3, tumors were surgically excised and small tumor fragments were subcutaneously implanted in the right flank of 52 recipient SWISS Nude mice.\nThe treatment started when tumors reached a mean volume of 200-300 mm^3. 40 animals out were randomized according to their individual tumor volume into 4 groups each of 10 animals using Vivo Manager® software (Biosystemes, Couternon, France). A statistical test (analysis of variance) was performed to test for homogeneity between groups.\nThe administration volume for the two models was 10 mL/kg (200 μL/mouse of 20 g) adjusted to the most recent individual body weight of mice.\nThe tumor volume was calculated by [(a×b^2) 2], where a is the largest tumor diameter and b the perpendicular tumor diameter measured with a caliper every 3 days.\nOn the day of termination (31 days after the first treatment), mice were sacrificed (40 total samples) by gas anesthesia over-dosage (Isoflurane) followed by cervical dislocation or exsanguination and tumor were collected from all mice."}, "PC model (HID-28) [3]": {"tested_on": "PC model (HID-28)", "conditions": "cited from earlier work"}}}
{"molecule": "O=S(=O)(CC1CS1)c1ccc(Oc2ccccc2)cc1", "note": "(stereo not drawn) [SB-3CT]", "values": [{"measurement": "tumor growth inhibition compared to standard of care (Temozolomide)", "setting": "[1]", "result": "identical to the one obtained with the standard of care"}]}
{"molecule": "Bevacizumab", "values": [{"measurement": "PFS and OS advantage in phase III trials", "setting": "recurrent glioblastoma; AVAglio and RTOG phase III trials (Soffietti 2014)", "result": "significant advantage for Bevacizumab treated patients in term of PFS but not of OS"}, {"measurement": "patients who seem to benefit from treatment", "setting": "recurrent glioblastoma; overall", "result": "less than 50%"}]}
{"molecule": "C#Cc1cccc(Nc2ncnc3cc(OCCOC)c(OCCOC)cc23)c1", "note": "[Erlotinib]", "values": [{"measurement": "efficacy when compared to all other drugs", "setting": "[1]; Erlotinib 50 mg/kg p.o 1 time per week, 3 weeks, not significantly different", "result": "−60", "unit": "%"}, {"measurement": "effect on tumor growth / tumor development", "setting": "PC model (HID-28) [2]", "result": "not efficient in blocking tumor development"}]}
{"molecule": "COc1cc2c(Oc3ccc4[nH]c(C)cc4c3F)ncnc2cc1OCCCN1CCCC1", "note": "[Cediranib]", "values": [{"measurement": "effect on tumor growth / tumor development", "setting": "CC model (CR-IC-028M); Cetuximab 12.5 mg/kg i.p, Trastuzumab 1 mg/kg i.p, vs vehicle", "result": "very significant anti-tumor activity"}, {"measurement": "tumor volume change", "setting": "CC model (CR-IC-028M); end point of the protocol, p=0.01, T-test, evolution of tumor growth P<0.0001", "result": "−50", "unit": "%"}, {"measurement": "tumor growth inhibition compared to standard of care (Temozolomide)", "setting": "[1]", "result": "identical to the one obtained with the standard of care"}, {"measurement": "effect on tumor growth / tumor development", "setting": "PC model (HID-28) [2]", "result": "very significant anti-tumor activity"}, {"measurement": "tumor volume change", "setting": "PC model (HID-28) [2]; end point of the protocol, p=0.002, T-test, evolution of tumor growth P<0.0001", "result": "−78", "unit": "%"}]}
{"molecule": "CC(=O)O[C@@]12CO[C@@H]1C[C@H](O)[C@@]1(C)C(=O)[C@H](O)C3=C(C)[C@@H](OC(=O)[C@H](O)[C@@H](NC(=O)OC(C)(C)C)c4ccccc4)C[C@@](O)([C@@H](OC(=O)c4ccccc4)[C@H]21)C3(C)C", "note": "[Docetaxel]", "values": [{"measurement": "effect on tumor growth / tumor development", "setting": "PC model (HID-28) [2]", "result": "tumor growth was inhibited"}, {"measurement": "response of the model in previous results", "setting": "PC model (HID-28) [3]", "result": "responsive"}]}
